Assay results published in article PMC3616060, “Full Inhibition of Spinal FAAH Leads to TRPV1-Mediated Analgesic Effects in Neuropathic Rats and Possible Lipoxygenase-Mediated Remodeling of Anandamide Metabolism” (PLoS ONE, 2013).

Tests used:
[1] = target: T1, transient receptor potential vanilloid-1 (TRPV1) (Rattus norvegicus, UniProt O35433); assay: intracellular Ca2+ (Fluo-4) assay in HEK-293 cells expressing rat TRPV1; assay type: cell-based
T1 construct: rat recombinant TRPV1 stably expressed in HEK-293 cells

[2] = target: T1, transient receptor potential vanilloid-1 (TRPV1); assay: intracellular Ca2+ (Fluo-4) assay in HEK-293 cells expressing rat TRPV1; much lower effect, if any, in wild-type cells or after I-RTX; assay type: cell-based

T1 sequence (O35433 whole entry): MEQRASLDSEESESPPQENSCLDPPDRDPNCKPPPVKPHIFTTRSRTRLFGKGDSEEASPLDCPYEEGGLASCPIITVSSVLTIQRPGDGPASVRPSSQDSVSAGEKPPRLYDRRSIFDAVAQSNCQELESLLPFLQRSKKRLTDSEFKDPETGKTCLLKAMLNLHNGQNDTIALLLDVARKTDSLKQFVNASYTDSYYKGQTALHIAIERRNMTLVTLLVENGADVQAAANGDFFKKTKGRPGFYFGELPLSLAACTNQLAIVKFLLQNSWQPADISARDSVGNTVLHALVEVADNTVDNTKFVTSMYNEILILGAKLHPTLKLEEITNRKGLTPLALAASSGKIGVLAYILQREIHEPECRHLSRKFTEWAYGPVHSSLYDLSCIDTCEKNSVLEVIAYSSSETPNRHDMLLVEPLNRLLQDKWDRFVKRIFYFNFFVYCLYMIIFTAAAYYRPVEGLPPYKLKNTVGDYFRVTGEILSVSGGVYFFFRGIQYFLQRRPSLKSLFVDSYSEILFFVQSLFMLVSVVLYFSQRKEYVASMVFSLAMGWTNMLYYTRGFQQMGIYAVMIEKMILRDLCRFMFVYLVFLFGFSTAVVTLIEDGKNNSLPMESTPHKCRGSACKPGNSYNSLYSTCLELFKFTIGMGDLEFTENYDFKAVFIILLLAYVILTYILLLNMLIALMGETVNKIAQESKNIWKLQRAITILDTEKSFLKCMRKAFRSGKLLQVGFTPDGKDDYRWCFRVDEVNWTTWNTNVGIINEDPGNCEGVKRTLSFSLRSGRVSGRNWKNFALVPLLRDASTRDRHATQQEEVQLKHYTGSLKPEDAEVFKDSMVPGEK

SMILES	EC50 [1] [µM]	EC50 [2] [µM]
CCCCC/C=C\C/C=C\C/C=C\C/C=C\CCCC(=O)NCCO [AEA, anandamide]	0.24 ± 0.03	
CCCCC[C@H](O)/C=C/C=C\C/C=C\C/C=C\CCCC(=O)NCCO [15S-HAEA, 15(S)-hydroxy-AEA]		11.3 ± 0.9
